{"source": "paper PMC8577775", "about": "“Small molecule allosteric inhibitors of RORγt block Th17-dependent inflammation and associated gene expression in vivo” (PLoS ONE, 2021)", "key": {"[1]": {"system": "Bclxl expression in the thymus", "assay": "Bclxl expression in thymus after oral dosing (QPCR)", "type": "in vivo, mouse", "details": "100 mg/kg PO, C57Bl/6 female mice; S5 Fig", "experimental": "Supplementary file pone.0248034.s009.tif: S5 Fig RORγt inhibitors reduce Bclxl expression in thymus of rodents. C57Bl/6 female mice were dosed PO with 100 mg/kg Compound 1, 2 or 3. Thymic tissues were collected from separate cohorts at 2, 8, 16 and 24 hours post-dose (n = 3 mice/timepoint). RNA was extracted from thymic tissues and Bclxl expression measured by QPCR. […] Time zero (‘0’) used as normalization timepoint and set to 1.0 RQ and mean set at 100% for % inhibition calculation. One-way ANOVA with Bonferroni correction for multiple comparisons used for statistical significance calculations. (TIF) Click here for additional data file."}, "PDAC PDO model T020P": {"system": "PDAC PDO model T020P", "assay": "In vitro organoid growth assay (CellTiter-Glo 3D), T020P", "type": "cell-based, human", "details": "organoid growth assay, up to 30 μM", "experimental": "(§1) Patient derived organoids were established as previously described. Briefly, PDX tumor chunks were minced then enzymatically digested into single cells by using a tumor dissociation Kit (Miltenyi, Cat# 130-095-929). Mouse and human cells were separated through magnetic separation, and isolated tumor cells were cultured on Matrigel-coated dishes. […]\n(§2) Organoids were isolated and dissociated as described above. Cell numbers were counted by trypan blue exclusion and 5000 cells per well were plated on the Matrigel coated and pre-warmed 96-well plates. […] 100 μl of CellTiter-Glo® 3D reagent (Promega cat# G9682) was added to each well after desired time points and luminescence signal measured after 30 minutes.\n(§3) Supplementary file pone.0248034.s010.tif: S6 Fig Schematic of Patient-derived organoids (PDO) growth & formation assays. […] After the indicated treatment schedule organoid growth or formation was assessed by CTG assay. […]"}, "PDAC PDO model T031P": {"system": "PDAC PDO model T031P", "assay": "In vitro organoid growth assay (CellTiter-Glo 3D), T031P", "type": "cell-based, human", "details": "30 μM, 120 hours of treatment", "experimental": "as §1, §2, §3"}}, "data": [{"molecule": "O=C(O)[C@@H]1CCC(c2nn(C(=O)c3c(Cl)cccc3C(F)(F)F)c3cccc(F)c23)=C[C@H]1O", "note": "[Compound 3]", "values": [{"measurement": "Bclxl expression in the thymus", "setting": "[1]", "result": "modulation of Bclxl expression in the thymus"}, {"measurement": "viability of T020P PDOs", "setting": "PDAC PDO model T020P", "result": "did not decrease viability"}, {"measurement": "decrease of organoid growth", "setting": "PDAC PDO model T031P", "result": "~ 30%"}]}]}
